Results taken from PubChem BioAssay AID179 (DTP/NCI, 2004).
Active and inactive are the calls of the source.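 How the source made its calls: active means compounds giving half or more protection of infected cells from virus-caused growth loss, again on retest; inactive means the rest.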 Where a SMILES comes first, the peptide text is derived from it.

System: CEM cells HIV-1 protection, formazan growth assay
Assay: NCI AIDS Antiviral Assay
Settings: for IC50: measured here: growth of uninfected CEM cells
Outline: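 Human CEM cells, uninfected and HIV-1-infected, received five drug concentrations, and growth was read by soluble formazan assay. Compounds giving at least 50% protection were retested; reproducible 100% protection defined confirmed active.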

| Compound | outcome | EC50 | IC50 |
| --- | --- | --- | --- |
| COc1cc(OC)c(OC)cc1/C=N/NC(=O)N/N=C/c1cc(OC)c(OC)cc1OC | inactive | – | – |
| COc1ccc(N(CN2C(=O)CCC2C(=O)O)C(C)=O)cc1 (stereo not given) | inactive | – | – |
| COc1ccc(Nc2nnc(CCCCCCCCc3nnc(Nc4ccc(OC)cc4)o3)o2)cc1 | – | > 200 µM | > 200 µM |
| Cc1ccc2c(c1)C(=O)c1cc(C)cc(C(=O)O)c1-2 | – | > 200 µM | > 200 µM |
| COc1ccc2c(c1)C(c1ccc3ccccc3c1)OC2=O (stereo not given) | – | > 46.8 µM | 7.41 µM |
| CC1(C)OC2OC(C(COS(=O)(=O)C(F)(F)F)N=[N+]=[N-])C(OC(=O)c3ccccc3)C2O1 (stereo not given) | – | > 200 µM | > 200 µM |
| O=C1COC(c2ccccc2)C(c2ccccc2)(c2ccccc2)O1 (stereo not given) | – | > 15.8 µM | > 15.8 µM |
| CN1CNC2C(=O)CCC2c2ccccc21 (stereo not given) | – | > 1150 µM | 676 µM |
| O=C(O)CC1CC2CC(=O)C1C2 (stereo not given) | – | > 200 µM | > 200 µM |
| Cc1ccc(OCC2OC(n3cnc4nc(Cl)nc(Cl)c43)CC2Oc2ccc(C)cc2)cc1 (stereo not given) | – | > 200 µM | 1.48 µM |
| Nc1ncnc2snnc12 | – | > 200 µM | > 200 µM |
| O=C1C2CCCCC2C(=O)N1n1c(Cc2ccc(Cl)cc2)n[nH]c1=O (stereo not given) | – | > 200 µM | > 200 µM |
| COc1c2c(nc3ccccc13)-c1cc3c(c(=O)n1C2)COC(=O)C3(O)CC(=O)N1CCOCC1 (stereo not given) | – | > 10 µM | 0.741 µM |
| CC(/C=C/c1ccccc1)=N\N=C(C)\C=C\c1ccccc1 | – | > 13.2 µM | > 13.2 µM |
| OCC(O)C(O)C(O)C(O)c1nn[nH]n1 (stereo not given) | inactive | – | – |
| CCOC(=O)/C=C/n1c2ccccc2c(=O)c2cc(OC)ccc21 | – | > 22.4 µM | > 22.4 µM |
| Cc1ccc(N=Nc2c(C)nn(C(=O)CC(=O)Nc3ccccc3)c2C)cc1C | – | > 200 µM | > 200 µM |
| N#CCCN(c1ccc(C=Nc2cccc([N+](=O)[O-])c2)cc1)S(=O)(=O)c1ccccc1 | inactive | – | – |
| CCCC(C)C(=Nc1ccc(Cl)c(Cl)c1)N(C)C (stereo not given) | – | > 200 µM | 28.2 µM |
| Cn1cc(NC(=O)Nc2cc(C(=O)Nc3cc(C(=O)Nc4ccc(S(=O)(=O)O)c5cc(S(=O)(=O)O)cc(S(=O)(=O)O)c45)n(C)c3)n(C)c2)cc1C(=O)Nc1cc(C(=O)Nc2ccc(S(=O)(=O)O)c3cc(S(=O)(=O)O)cc(S(=O)(=O)O)c23)n(C)c1 | active | – | – |
| CC1(C)C2CC(=O)C1(C)C(O)C2Br (stereo not given) | inactive | – | – |
| CCCCNC(=O)c1cc(NC(=O)c2ccc(C(=O)Nc3cc(C(=O)NCCCC)cc(C4N=CCN4)c3)cc2)cc(C2=NCCN2)c1 (stereo not given) | – | 13.2 µM | > 100 µM |

| Compound | outcome | EC50 | IC50 |
| --- | --- | --- | --- |
| CC(C)(CN1CCCCC1)C(=O)CC(SCCS(=O)(=O)O)c1ccc(Cl)c(Cl)c1 (stereo not given) | – | > 200 µM | 1.2 µM |
| Cc1cc(-c2ccc(N=Nc3c(S(=O)(=O)O)cc4cccc(S(=O)(=O)O)c4c3O)c(C)c2)ccc1N=Nc1ccc2c(S(=O)(=O)O)ccc(N)c2c1O | inactive | – | – |
| O=C(NCCCCCCNC(=O)NCc1ccco1)NCc1ccco1 | – | > 14.5 µM | > 14.5 µM |
| COc1c(C(=O)c2cc(Cl)cc(S(=O)(=O)N(C)C=O)c2OC)cc(Cl)cc1S(=O)(=O)N(C)C=O | – | > 46.8 µM | > 46.8 µM |
| O=C1N/C(=C\[N+](=O)[O-])c2ccccc21 | – | > 501 µM | 263 µM |
| O=S(=O)(/C=C/c1ccc(F)cc1)Cc1ccc(CS(=O)(=O)/C=C/c2ccc(F)cc2)cc1 | – | > 27.5 µM | > 27.5 µM |
| Cc1cc2c(cc1Cl)SC(NNC(=O)c1ccco1)=NS2(=O)=O | – | > 200 µM | > 200 µM |
| Cc1nn2cnnc2s1 | – | > 501 µM | > 501 µM |
| COc1cc2c(cc1OC)-c1cc3ccccc3c(=O)n1CC2 | – | > 200 µM | 28.2 µM |
| Cc1ccc(/C=C2\CN(C)CC3=C2OC(N)=C(C#N)C3c2ccc(C)cc2)cc1 (stereo not given) | – | > 200 µM | 10.2 µM |
| Nc1cn2ncnc2c(=O)[nH]1 | – | > 174 µM | > 174 µM |
| NC(Cc1ccc(S(=O)(=O)O)cc1)C(=O)NC(Cc1ccc(S(=O)(=O)O)cc1)C(=O)NC(Cc1ccc(S(=O)(=O)O)cc1)C(=O)O (stereo not given) | – | > 200 µM | > 200 µM |
| NC(=O)C1=Cc2cccn2-c2ccccc2S1 | – | > 123 µM | 56.2 µM |
| CC(=O)OCC1OC(SC2=N/C(=C\c3cc4c(=O)c5ccccc5sc4s3)C(=O)N2c2ccccc2)C(OC(C)=O)C(OC(C)=O)C1OC(C)=O (stereo not given) | – | > 200 µM | 115 µM |
| CCOC(=O)CNC(=O)C(Cc1ccccc1)NC(=O)C(N)CC(=O)O (stereo not drawn) (H-Asp-Phe-Gly-OEt; configuration not given here) | – | > 200 µM | > 200 µM |
| COc1ccc(=O)n(C)n1 | – | > 1780 µM | 1450 µM |
| O=C1[C@H]2C(c3ccccc3)=NN(C(=O)c3ccccc3)[C@H]2C(=O)N1c1ccccc1 | inactive | – | – |
| S=C(N/N=C(/c1ccccc1)c1ccccn1)N1CCCCC1 | – | > 2 µM | 0.0389 µM |
| COc1ccc(C23OCN(c4ccccc4)C2(c2ccc(OC)cc2)c2ccccc2N3C)cc1 (stereo not given) | – | > 200 µM | > 200 µM |
| CC1(C)C(=O)N=C(N)N1C(=O)OCc1ccccc1 | – | > 200 µM | > 200 µM |
| O=C(CC1(O)C(=O)Nc2ccccc21)c1ccncc1 (stereo not given) | inactive | – | – |
| O=c1[nH]c(=O)n(C2CC(O)C(CO)O2)cc1C#Cc1c(F)c(F)c(F)c(F)c1F (stereo not given) | – | > 603 µM | 110 µM |

| Compound | outcome | EC50 | IC50 |
| --- | --- | --- | --- |
| O=C1C2=Cc3ccccc3CCN2c2ccccc21 | – | > 200 µM | 26.9 µM |
| COc1ccc(/C(Cl)=C(\C=O)c2ccc(OC)c(OC)c2)cc1OC | – | > 251 µM | > 251 µM |
| Fc1ccc2c3c([nH]c2c1)CCNC3 | – | > 200 µM | > 200 µM |
| CCN(CC)CC(=O)Nc1ccc(C(=O)OCC(C)C)cc1 | – | > 200 µM | 26.9 µM |
| COc1ccc(/C(Cl)=C(\C=N/O)c2ccc(OC)c(OC)c2)cc1OC | – | > 13.8 µM | > 13.8 µM |
| COC(=O)c1ccc2cc(O)c(O)cc2c1 | – | > 200 µM | 22.4 µM |
| CC(C)(C)N/N=C(\C(=O)Nc1cccc(Cl)c1)C1C(=O)Nc2ccccc2S1=O (stereo not given) | inactive | – | – |
| O=c1c(Cc2ccccc2)c(-c2ccccc2)[nH]n1C1=NCCN1 | – | > 200 µM | 19.1 µM |
| CC1(c2cccc(C3CC4(CCC3=O)OCCCCO4)c2)OCCO1 (stereo not given) | – | > 200 µM | > 200 µM |
| O=S(=O)(O)C(O)C(F)(F)C(F)(F)C(F)(F)C(F)(F)C(O)S(=O)(=O)O (stereo not given) | – | > 200 µM | 155 µM |
| C1=CN2C(c3ccccc3)=NON(c3ncccn3)C2N=C1 (stereo not given) | – | > 46.8 µM | > 46.8 µM |
| COc1cc([N+](=O)[O-])c(OC)c2c(=O)[nH]c(=O)[nH]c12 | – | > 47.9 µM | > 47.9 µM |
| CN1c2c(C(=O)NCCCN3CCOCC3)nn(-c3cccc(C(F)(F)F)c3)c2-c2ccccc2S1(=O)=O | – | > 66.1 µM | > 66.1 µM |
| C[N+](C)(C)C=Nc1cccc2c1CCCC2 | – | > 200 µM | – |
| O=C(CC1(O)C(=O)Nc2c(Cl)cc(Cl)cc21)c1cccc2ccccc12 (stereo not given) | – | > 67.6 µM | > 67.6 µM |
| CCOC(=O)c1nc2cc(C(F)(F)F)ccc2nc1Nc1ccc(F)cc1 | – | > 200 µM | 12.3 µM |
| C[C@@H]1c2ccc3c(c2C2(O)C[C@H]4CCC1N2C4)CC1[C@H]3CC(=O)C2C[C@@H](O)CC[C@@]21C (stereo not given in full) | – | > 155 µM | > 155 µM |
| COc1ccc(C2=NN(C(C)=O)c3nc4ccccc4nc3O2)cc1 | inactive | – | – |
| CC1(Br)C2c3ccccc3C(c3ccccc32)C1(C)C(Cl)(Cl)Cl (stereo not given) | – | > 16.6 µM | > 16.6 µM |
| C=C[C@@H]1C(CO)=CCC2[C@H]1CCC1C(C)(C)C(=O)CC[C@]21C (stereo not given in full) | – | > 200 µM | > 200 µM |
| N#CCCN(CCC#N)c1ccc(/C=C2/C=C(c3ccccc3)OC2=O)cc1 | – | > 14.1 µM | > 14.1 µM |
| Cn1c2ccc3cc2c(=S)c2cc(ccc21)OCCOCCOCCOCCOCCOCCO3 | – | > 200 µM | 186 µM |

| Compound | outcome | EC50 | IC50 |
| --- | --- | --- | --- |
| O=[N+]([O-])c1cccc(C2=NC(=S)NC(c3cc(Cl)ccc3O)C2)c1 (stereo not given) | – | > 200 µM | 141 µM |
| O=[N+]([O-])c1ccc(Sc2ccc([N+](=O)[O-])cc2)cc1 | inactive | – | – |
| CN1C2CCC1CC(O)C2 (stereo not given) | – | > 1780 µM | > 1780 µM |
| COc1c2c(cc3ccc(=O)oc13)C(Cl)C(Cl)O2 (stereo not given) | – | > 77.6 µM | 21.9 µM |
| O=C1C=C2CC3c4[nH]c5ccccc5c4CCN3CC2CC1 (stereo not given) | – | > 85.1 µM | 43.7 µM |
| C=CC[C@H](C)CCC(=O)N1[C@H]2CC3CC[C@@]2(CS1(=O)=O)C3(C)C | – | > 200 µM | 75.9 µM |
| N#Cc1c(O)cc(=O)n2c1[nH]c1ccccc12 | – | > 200 µM | 174 µM |
| CC(NC(=O)c1ccccc1SC(=O)CCC[n+]1ccccc1)C(N)=O (stereo not given) | – | 2.24 µM | 19.1 µM |
| CSc1nc2c(nc(N)n2C2OCC(O)C(O)C2O)c(=O)n1C (stereo not given) | inactive | – | – |
| O=CCCn1[nH]c(=O)ccc1=O | – | > 1480 µM | 1410 µM |
| CCOC(=O)C(C)c1nc2cc(N3CCOCC3)c(F)cc2[nH]c1=O (stereo not given) | – | > 200 µM | > 200 µM |
| COc1ccc(C=C2C(=O)OC(C)(C)OC2=O)cc1OC | – | > 170 µM | > 170 µM |
| Cc1ccc(C2SCC(=O)N2NC(=O)c2ccncc2)s1 (stereo not given) | – | > 200 µM | > 200 µM |
| CCc1cc(-c2ccc(OC)cc2)c(C#N)c(=S)n1C1OC(CO)C(O)C(O)C1O (stereo not given) | – | > 200 µM | 126 µM |
| O=C1c2ccccc2CCC1(Br)C(Br)c1ccccc1 (stereo not given) | – | > 200 µM | 5.37 µM |
| CN(C)CC1(C)Cc2sccc2C1=O (stereo not given) | – | > 200 µM | > 200 µM |
| COc1ccc(C2NC(=O)N3C(c4ccc(OC)cc4)NC(=O)N23)cc1 (stereo not given) | inactive | – | – |
| O=C(O)Cc1[nH]c(=O)[nH]c(=O)c1CCl | – | > 100 µM | > 100 µM |
| c1ccc(COCC23CCN(Cc4ccccc4)C(CC(OCc4ccccc4)C2)S3)cc1 (stereo not given) | – | > 200 µM | 45.7 µM |
| CCOC(=O)/C(Br)=C/SCCC(=O)O | – | > 891 µM | 174 µM |
| Cc1c(OC(C)C(=O)O)ccc2c(-c3ccccc3)cc(=O)oc12 (stereo not given) | inactive | – | – |
| COc1ccc2c(c1)OC[C@@H]1c3cc(NS(=O)(=O)c4ccccc4)cc(OC)c3O[C@H]21 | – | > 200 µM | 18.2 µM |
